Laboratory results as given in the Kinase Knowledgebase extract (Sharma et al. 2016).

Molecular target: PIK3CA (UniProt P42336)
Assay: PI3K Inhibition

Chain of PIK3CA (P42336 whole entry, looked up): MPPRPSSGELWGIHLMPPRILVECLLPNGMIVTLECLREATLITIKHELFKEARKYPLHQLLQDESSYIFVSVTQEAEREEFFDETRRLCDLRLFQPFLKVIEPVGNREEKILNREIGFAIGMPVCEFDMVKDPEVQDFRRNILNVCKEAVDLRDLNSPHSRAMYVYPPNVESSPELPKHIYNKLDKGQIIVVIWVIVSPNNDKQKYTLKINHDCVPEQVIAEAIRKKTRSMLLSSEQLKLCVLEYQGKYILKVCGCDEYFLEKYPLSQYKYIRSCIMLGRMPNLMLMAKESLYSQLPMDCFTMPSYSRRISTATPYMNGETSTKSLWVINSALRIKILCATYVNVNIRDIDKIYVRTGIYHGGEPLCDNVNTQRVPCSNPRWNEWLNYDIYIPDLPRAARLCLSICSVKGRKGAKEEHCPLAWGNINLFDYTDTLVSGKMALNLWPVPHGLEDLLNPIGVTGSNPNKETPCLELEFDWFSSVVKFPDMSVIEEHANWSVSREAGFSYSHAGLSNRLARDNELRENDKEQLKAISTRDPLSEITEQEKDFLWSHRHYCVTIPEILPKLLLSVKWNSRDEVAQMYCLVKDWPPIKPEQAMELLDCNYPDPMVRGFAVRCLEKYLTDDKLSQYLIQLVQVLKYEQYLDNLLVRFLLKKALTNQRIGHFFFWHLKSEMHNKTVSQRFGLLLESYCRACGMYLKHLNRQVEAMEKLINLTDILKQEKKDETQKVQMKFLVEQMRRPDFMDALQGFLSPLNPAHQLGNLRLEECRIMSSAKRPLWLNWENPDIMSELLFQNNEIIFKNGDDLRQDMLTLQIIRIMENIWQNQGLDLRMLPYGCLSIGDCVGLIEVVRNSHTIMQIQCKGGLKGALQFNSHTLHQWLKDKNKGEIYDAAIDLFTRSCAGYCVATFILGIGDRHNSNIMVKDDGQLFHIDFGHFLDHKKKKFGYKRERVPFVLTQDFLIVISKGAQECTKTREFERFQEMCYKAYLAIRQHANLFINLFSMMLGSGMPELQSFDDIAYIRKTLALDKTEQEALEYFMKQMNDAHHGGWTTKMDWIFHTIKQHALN

CO[C@H]1C[C@@H](C)CC2=C(NCC#Cc3cccc4c(=O)cc(N5CCOCC5)oc34)C(=O)C=C(NC(=O)C(C)=CC=C[C@@H](OC)[C@H](OC(N)=O)C(C)=C[C@H](C)[C@H]1O)C2=O was tested, and the IC50 was 3 µM.
CO[C@H]1C[C@@H](C)CC2=C(NCCCC#Cc3cccc4c(=O)cc(N5CCOCC5)oc34)C(=O)C=C(NC(=O)C(C)=CC=C[C@@H](OC)[C@H](OC(N)=O)C(C)=C[C@H](C)[C@H]1O)C2=O gave an IC50 of 13.5 µM.
With CO[C@H]1C[C@@H](C)CC2=C(NCCCOc3ccc4c(=O)cc(N5CCOCC5)oc4c3)C(=O)C=C(NC(=O)C(C)=CC=C[C@@H](OC)[C@H](OC(N)=O)C(C)=C[C@H](C)[C@H]1O)C2=O the IC50 was > 500 µM.
Molecule CO[C@H]1C[C@@H](C)CC2=C(NCCCCCOc3ccc4c(=O)cc(N5CCOCC5)oc4c3)C(=O)C=C(NC(=O)C(C)=CC=C[C@@H](OC)[C@H](OC(N)=O)C(C)=C[C@H](C)[C@H]1O)C2=O has an IC50 of 310 µM.
CO[C@H]1C[C@@H](C)CC2=C(NCCCCCCCCOc3ccc4c(=O)cc(N5CCOCC5)oc4c3C)C(=O)C=C(NC(=O)C(C)=CC=C[C@@H](OC)[C@H](OC(N)=O)C(C)=C[C@H](C)[C@H]1O)C2=O gave an IC50 of 28 µM.
With CO[C@H]1C[C@@H](C)CC2=C(NCCOCCOc3ccc4c(=O)cc(N5CCOCC5)oc4c3)C(=O)C=C(NC(=O)C(C)=CC=C[C@@H](OC)[C@H](OC(N)=O)C(C)=C[C@H](C)[C@H]1O)C2=O the IC50 was 85 µM.
Molecule CO[C@H]1C[C@@H](C)CC2=C(NCCCCCCCOc3ccc4c(=O)cc(N5CCOCC5)oc4c3C)C(=O)C=C(NC(=O)C(C)=CC=C[C@@H](OC)[C@H](OC(N)=O)C(C)=C[C@H](C)[C@H]1O)C2=O has an IC50 of 5 µM.
With C=CCNC1=C2C[C@@H](C)C[C@H](OC)[C@H](O)[C@@H](C)C=C(C)[C@H](OC(N)=O)[C@@H](OC)C=CC=C(C)C(=O)NC(=CC1=O)C2=O the IC50 was > 500 µM.
CO[C@H]1C[C@@H](C)CC2=C(NCCOCCOc3ccc4c(=O)cc(N5CCOCC5)oc4c3C)C(=O)C=C(NC(=O)C(C)=CC=C[C@@H](OC)[C@H](OC(N)=O)C(C)=C[C@H](C)[C@H]1O)C2=O gave an IC50 of 70 µM.
Work on CO[C@H]1C[C@@H](C)CC2=C(NCCCCOc3ccc4c(=O)cc(N5CCOCC5)oc4c3)C(=O)C=C(NC(=O)C(C)=CC=C[C@@H](OC)[C@H](OC(N)=O)C(C)=C[C@H](C)[C@H]1O)C2=O yielded an IC50 of 200 µM.
With CO[C@H]1C[C@@H](C)CC2=C(NCCCCCCOc3ccc4c(=O)cc(N5CCOCC5)oc4c3)C(=O)C=C(NC(=O)C(C)=CC=C[C@@H](OC)[C@H](OC(N)=O)C(C)=C[C@H](C)[C@H]1O)C2=O the IC50 was > 500 µM.
